Test results taken from patent US20250276029A1, “ANTIBACTERIAL AND ANTIOXIDANT COMPOSITION CONTAINING GRAPE CALLUS CULTURE MEDIUM AS ACTIVE INGREDIENT” (INGR INCORPORATED, priority 2021, published 2025).

What was measured:
[1] = system: P. acnes 3320 (KCTC 3320); test: MIC for acne bacteria, P. acnes 3320; type: cell-based, Propionibacterium acnes; conditions: P. acnes 3320, 72 hours, anaerobic
Experimental: (§1) To confirm the antibacterial effect of grape callus culture solution on acne bacteria, Propionibacterium acnes (KCTC 3314, KCTC 3320, KCTC 5012) was cultured in RCM (Reinforced Clostridial Medium) at 37° C., anaerobic conditions. MIC is an index for measuring bacteriostatic characteristics of antibacterial substances, and after diluting the grape callus culture solution of the present invention to a concentration between […], the minimum concentration that inhibits the growth of three kinds of P. acnes was examined. Specifically, three kinds of P. acnes cultured in <3-1> were incubated in an incubator at 37° C. for 72 hours under anaerobic conditions in 5 ml of RCM liquid medium. In addition, a master plate was prepared at 8 concentrations by diluting ½ from the highest concentration to DW in 96 well plates. 50 μl of each diluted sample was then transferred to another 96-well plate. […] To measure the MIC, 0 hour OD600 nm was measured with a Microplate Reader. Then, after incubating the 96-well plate in 72-hour 37° C., incubation under anaerobic conditions, measuring OD600 nm for 72 hours with a Microplate Reader, subtracting the 0-hour OD value from the 72-hour OD value, the growth of three P. acnes according to control and sample concentration was compared, and antibacterial activity was confirmed through OD value comparison.

[2] = system: P. acnes 3320; test: Disc diffusion test; type: cell-based, Propionibacterium acnes; conditions: for clear zone diameter, 1: column 1; for clear zone diameter, 2: column 2
Experimental: The disc diffusion test is an antibacterial agent sensitivity test method of bacteria, and if there is an antibacterial effect, a clear zone is formed around the disk paper, and the antibacterial ability can be measured through the degree of clear zone formation. Specifically, P. acnes 3320 was incubated in 5 ml of RCM liquid medium in an incubator at 37° C. for 72 hours under anaerobic conditions. Then, the bacteria diluted with 5×10^5 1×10^6 were moistened with a cotton swab and evenly smeared on RCM agar medium. The disk paper was placed on an agar plate, the disk paper was moistened with a sample of the stock solution, and then incubated in a 72-hour 37° C. incubator under anaerobic conditions, and then the clear zone size was measured using a Vernier Caliper.

[3] = system: P. acnes 5012 (KCTC 5012); test: MIC for acne bacteria, P. acnes 5012; type: cell-based, Propionibacterium acnes; conditions: P. acnes 5012, 72 hours, anaerobic
Experimental: as §1

[4] = system: P. acnes 3320 (KCTC 3320); test: MBC analysis for acne bacteria, P. acnes 3320; type: cell-based, Propionibacterium acnes; conditions: for MBC, concentration of highest growth inhibition effect: P. acnes 3320, 72-hour; for MBC, concentration of highest growth inhibitory effect: P. acnes 3320, 48 hr
Experimental: (§2) To confirm the antibacterial effect of grape callus culture solution on acne bacteria, Propionibacterium acnes (KCTC 3314, KCTC 3320, KCTC 5012) was cultured in RCM (Reinforced Clostridial Medium) at 37° C., anaerobic conditions. The Minimum Bactericidal Concentration (MBC) is an indicator measuring the bactericidal properties of an antibacterial substance, and the grape callus culture extract of the present invention was diluted to concentrations ranging […], and the minimum concentration inhibiting the growth of three strains of P. acnes was determined. Specifically, the minimum bactericidal concentration was measured using a plate measuring the MIC of <3-1>.

[5] = system: P. acnes 3314 (KCTC 3314); test: MBC analysis for acne bacteria, P. acnes 3314; type: cell-based, Propionibacterium acnes; conditions: for MBC, concentration of highest growth inhibition effect: P. acnes 3314, 72-hour; for MBC, concentration of highest growth inhibitory effect: P. acnes 3314, 48 hr
Experimental: as §2

[6] = system: P. acnes 5012 (KCTC 5012); test: MBC analysis for acne bacteria, P. acnes 5012; type: cell-based, Propionibacterium acnes; conditions: for MBC, concentration of highest growth inhibition effect: P. acnes 5012, 72-hour; for MBC, concentration of highest growth inhibitory effect: P. acnes 5012, 48 hr
Experimental: as §2

[7] = system: MNT-1 (human melanoma cell); test: MTT assay cytotoxicity, MNT-1 cells; type: cell-based; conditions: 24 h
Experimental: (§3) MTT assay was performed using MNT-1, Raw264.7 cells to confirm the cytotoxicity of grape callus cultures, epsilon-Viniferin and delta-Viniferin. Specifically, Raw264.7 (murine macrophage) was incubated at 37° C., 5% CO2 in DMEM (High glucose) medium with 10% FBS and 1% gentamicine added, and MNT-1 (human melanoma cell) was incubated at 37° C., 5% CO2 in DMEM/MEM (High glucose) medium with 20% FBS and 1% gentamicine added. MNT-1 (10^4 cell/well) and Raw264.7 (2×10^4 cell/well) were each incubated in 96 wells, the samples were diluted with medium and treated in each well. After 24 hours, the MTT solution was treated at a concentration of 100 μg/mL and reacted at 37° C., 5% CO2 incubator for 1 hour. All cultures were then removed, 100 μl of acid-isopropanol was added to each well, and absorbance was measured with an ELISA reader at 570 nm. In addition, the sample was diluted based on epsilon-Viniferin content and treated in a well for comparison with Viniferin.

[8] = DPPH analysis (antioxidant effect); conditions: 500 μg/ml
Experimental: DPPH analysis was performed to confirm the antioxidant effect of grape callus culture solution. Specifically, 0.2 mM DPPH (1,1-Diphenyl-2-picryhydrazyl) solution was prepared using 80% methanol, and then 180 μl of DPPH and 20 μl of the sample were well mixed and reacted at room temperature for 10 minutes, and then absorbance was measured with an ELISA reader at 517 nm. On the other hand, the sample was diluted based on epsilon-Viniferin content and treated in a well for comparison with Viniferin. In addition, the control method used DPPH reagent in the dilution solvent of the sample instead of the sample. Ascorbic acid was treated as a positive control.

[9] = system: P. acnes 3314 (KCTC 3314); test: MIC for acne bacteria, P. acnes 3314; type: cell-based, Propionibacterium acnes; conditions: P. acnes 3314, 72 hours, anaerobic
Experimental: as §1

[10] = system: Raw264.7 (murine macrophage); test: MTT assay cytotoxicity, Raw264.7 cells; type: cell-based; conditions: mouse, 24 h
Experimental: as §3

| Compound | MIC, average concentration that inhibits growth [1] | clear zone diameter, Average ([2]; ε-viniferin 5 μg) [mm] | clear zone diameter, 1 ([2]; ε-viniferin 5 μg) [mm] | clear zone diameter, 2 ([2]; ε-viniferin 5 μg) [mm] | clear zone diameter, Average ([2]; ε-viniferin 10 μg) [mm] | clear zone diameter, 1 ([2]; ε-viniferin 10 μg) [mm] | clear zone diameter, 2 ([2]; ε-viniferin 10 μg) [mm] | MIC, average concentration that inhibits growth [3] | MBC, concentration of highest growth inhibition effect [4] | MBC, concentration of highest growth inhibitory effect [4] | MBC, concentration of highest growth inhibition effect [5] | MBC, concentration of highest growth inhibitory effect [5] | MBC, concentration of highest growth inhibition effect [6] | MBC, concentration of highest growth inhibitory effect [6] | concentration showing no cytotoxicity (MTT) [7] [µg/mL] | radical scavenging activity (DPPH) compared to the control group [8] | MIC, average concentration that inhibits growth [9] | concentration showing no cytotoxicity (MTT) [10] [µg/mL] |
| --- | --- | --- | --- | --- | --- | --- | --- | --- | --- | --- | --- | --- | --- | --- | --- | --- | --- | --- |
| Oc1ccc(/C=C/c2cc(O)cc3c2C(c2cc(O)cc(O)c2)C(c2ccc(O)cc2)O3)cc1 (stereo not drawn) [epsilon-Viniferin, trans-ε-viniferin] | did not show growth inhibition | 0 | 0 | 0 | 0 | 0 | 0 | did not show growth inhibition | did not show growth inhibition | did not show growth inhibition | did not show growth inhibition | did not show growth inhibition | did not show growth inhibition | did not show growth inhibition | ≤ 20 | approximately 25% | did not show growth inhibition | ≤ 20 |
| Oc1ccc(C2Oc3ccc(/C=C/c4cc(O)cc(O)c4)cc3C2c2cc(O)cc(O)c2)cc1 (stereo not drawn) [delta-Viniferin, trans-δ-Viniferin] | did not show growth inhibition |  |  |  |  |  |  | did not show growth inhibition | did not show growth inhibition | did not show growth inhibition | did not show growth inhibition | did not show growth inhibition | did not show growth inhibition | did not show growth inhibition |  | approximately 25% | did not show growth inhibition |  |
